According to ChEMBL document CHEMBL1158815, “Sesquiterpene lactones from Centaurea spinosa and their antibacterial and cytotoxic activities” (2005):
In brackets after ≈: the same amount, converted by molar mass. Activity calls are given as the source filed them. No cut-off for these calls is given here.

How the values were obtained:
NCI-H460 [1] = experiment: Cytotoxicity against human H460 cells after 48 hrs by SRB assay; assay type: functional; conditions: NCI-H460, 48 h
DLD-1 [2] = experiment: Cytotoxicity against human DLD1 cells after 48 hrs by SRB assay; assay type: functional; conditions: DLD-1, 48 h
MCF7 [3] = experiment: Cytotoxicity against human MCF7 cells after 48 hrs by SRB assay; assay type: functional; conditions: MCF7, 48 h
SF-268 [4] = experiment: Cytotoxicity against human SF268 cells after 48 hrs by SRB assay; assay type: functional; conditions: SF-268, 48 h
OVCAR-3 [5] = experiment: Cytotoxicity against human OVCAR-3 cells after 48 hrs by SRB assay; assay type: functional; conditions: OVCAR-3, 48 h
Escherichia coli = experiment: Antimicrobial activity against Escherichia coli ATCC 35218 by microdilution method; assay type: functional, organism-based
Micrococcus luteus = experiment: Antimicrobial activity against Micrococcus flavus ATCC 10240 by microdilution method; assay type: functional
Staphylococcus aureus = experiment: Antimicrobial activity against Staphylococcus aureus ATCC 6538 by microdilution method; assay type: functional
Pseudomonas aeruginosa = experiment: Antimicrobial activity against Pseudomonas aeruginosa ATCC 27853 by microdilution method; assay type: functional, organism-based
Proteus mirabilis = experiment: Antimicrobial activity against Proteus mirabilis isolates by microdilution method; assay type: functional, organism-based
Bacillus cereus = experiment: Antimicrobial activity against Bacillus cereus isolates by microdilution method; assay type: functional
MCF7 [6] = experiment: Cytotoxicity against human MCF7 cells at <40 uM after 48 hrs by SRB assay; assay type: functional, cell-based
SF-268 [7] = experiment: Cytotoxicity against human SF268 cells at <40 uM after 48 hrs by SRB assay; assay type: functional, cell-based
DLD-1 [8] = experiment: Cytotoxicity against human DLD1 cells at <40 uM after 48 hrs by SRB assay; assay type: functional, cell-based
OVCAR-3 [9] = experiment: Cytotoxicity against human OVCAR-3 cells at <40 uM after 48 hrs by SRB assay; assay type: functional, cell-based
NCI-H460 [10] = experiment: Cytotoxicity against human H460 cells at <40 uM after 48 hrs by SRB assay; assay type: functional, cell-based
[11] = read-out: LC50 (the source's name)

Structure (SMILES) | MIC (Micrococcus luteus) [µg/mL] | MIC (Staphylococcus aureus) [µg/mL] | MIC (Bacillus cereus) [µg/mL] | GI50 (MCF7 [3]) [µM] | GI50 (SF-268 [4]) [µM] | GI50 (OVCAR-3 [5]) [µM] | Activity (Escherichia coli) | Activity (Pseudomonas aeruginosa) | Activity (Proteus mirabilis) | Activity (MCF7 [6]) | Activity (SF-268 [7]) | Activity (DLD-1 [8]) | Activity (OVCAR-3 [9]) | Activity (NCI-H460 [10]) | further results
CC[C@]1(O)C[C@@H]2CN(CCc3c([nH]c4ccccc34)[C@@](C(=O)OC)(c3cc4c(cc3OC)N(C)[C@H]3[C@@](O)(C(=O)OC)[C@H](OC(C)=O)[C@]5(CC)C=CCN6CC[C@]43[C@@H]65)C2)C1 [VINBLASTINE] |  |  |  | < 0.01 | < 0.01 | < 0.01 |  |  |  |  |  |  |  |  | GI50 (NCI-H460 [1]): < 0.01 µM; TGI (NCI-H460 [1]): 0.35 µM; GI50 (DLD-1 [2]): < 0.01 µM; TGI (DLD-1 [2]): 2.44 µM; CC50 (DLD-1 [2]; [11]): 2.48 µM; TGI (MCF7 [3]): 1.6 µM; TGI (OVCAR-3 [5]): < 0.01 µM; CC50 (OVCAR-3 [5]; [11]): 0.92 µM
C=C[C@]1(C)C[C@H](OC(=O)C(=C)[C@@H](O)CO)[C@H]2C(=C)C(=O)O[C@@H]2[C@H]1C(=C)CO | 5 (≈ 13.2 µM) | 5 (≈ 13.2 µM) | 1.25 (≈ 3.3 µM) |  | 29.3 |  | inactive | inactive | inactive | inactive | inactive |  |  |  | 
C=C1C(=O)O[C@H]2[C@H]1[C@@H](OC(=O)C(=C)[C@@H](O)COC(C)=O)C[C@]1(C)[C@@H]2[C@@H](C=O)CC[C@H]1O | 5 (≈ 11.5 µM) | 5 (≈ 11.5 µM) |  |  |  |  | inactive | inactive | inactive |  |  |  |  |  | 
C=C1C(=O)O[C@@H]2/C=C(\CO)CC/C=C(\C)C[C@H](OC(=O)/C(=C/COC(C)=O)CO)[C@@H]12 | 5 (≈ 11.9 µM) | 5 (≈ 11.9 µM) | 1.25 (≈ 2.97 µM) |  |  |  | inactive | inactive | inactive |  |  |  |  |  | 
C=C[C@]1(C)C[C@H](OC(=O)C(=C)[C@@H](O)CO)[C@@H](C(=C)C(=O)OC)[C@H](O)C1C(=C)CO (stereo partly drawn) |  | 5 (≈ 12.2 µM) |  |  | 37.6 | 31.9 | inactive | inactive | inactive | inactive | inactive | inactive | inactive | inactive | 
C=C1C(=O)O[C@@H]2/C=C(\CO)CC/C=C(\C)C[C@H](OC(=O)C(=C)[C@H](O)CO)[C@@H]12 [CNICIN] | 5 (≈ 13.2 µM) |  | 1.25 (≈ 3.3 µM) | 37.8 |  | 37.4 | inactive | inactive | inactive | inactive | inactive | inactive | inactive | inactive | 

Now from value to molecule, other results behind:

MIC (Micrococcus luteus) [µg/mL] | MIC (Staphylococcus aureus) [µg/mL] | MIC (Bacillus cereus) [µg/mL] | Structure (SMILES) | GI50 (MCF7 [3]) [µM] | GI50 (SF-268 [4]) [µM] | GI50 (OVCAR-3 [5]) [µM] | Activity (Escherichia coli) | Activity (Pseudomonas aeruginosa) | Activity (Proteus mirabilis) | Activity (MCF7 [6]) | Activity (SF-268 [7]) | Activity (DLD-1 [8]) | Activity (OVCAR-3 [9]) | Activity (NCI-H460 [10]) | further results
5 (≈ 12.7 µM) | 5 (≈ 12.7 µM) |  | C=C1C(=O)O[C@H]2[C@H]1[C@@H](OC(=O)C(=C)[C@@H](O)CO)C[C@]1(C)[C@@H]2[C@@H](C=O)CC[C@H]1O [MALACITANOLIDE] |  |  |  | inactive | inactive | inactive |  |  |  |  |  | 
5 (≈ 11.9 µM) | 5 (≈ 11.9 µM) | 1.25 (≈ 2.97 µM) | C=C1C(=O)O[C@@H]2/C=C(\CO)CC/C=C(\C)C[C@H](OC(=O)C(=C)[C@@H](O)COC(C)=O)[C@@H]12 |  |  |  | inactive | inactive | inactive |  |  |  |  |  | 
0.437 (≈ 1 µM) | 3.5 (≈ 8.02 µM) |  | C=C1C(=O)O[C@@H]2[C@H]1[C@@H](OC(=O)/C(=C/COC(C)=O)CO)C[C@]1(C)[C@@H]2[C@@H](C=O)CC[C@H]1O |  |  |  | inactive | inactive | inactive |  |  |  |  |  | 
0.625 (≈ 1.58 µM) | 5 (≈ 12.7 µM) | 5 (≈ 12.7 µM) | C=C1C(=O)O[C@H]2[C@H]1[C@@H](OC(=O)C(=C)[C@@H](O)CO)C[C@]1(C)[C@@H]2[C@H](C=O)CC[C@H]1O | 31.7 |  | 36.4 | inactive | inactive | inactive | inactive | inactive | inactive | inactive | inactive | GI50 (NCI-H460 [1]): 32.4 µM
0.625 (≈ 1.66 µM) | 5 (≈ 13.3 µM) | 1.25 (≈ 3.32 µM) | C=C[C@]1(C)C[C@H](OC(=O)C(=C)[C@@H](O)CO)[C@H]2C(=C)C(=O)O[C@@H]2[C@H]1C(=C)C=O | 10 | 7.7 | 4.7 | inactive | inactive | inactive | inactive | inactive | inactive | inactive | inactive | GI50 (NCI-H460 [1]): 37 µM; TGI (SF-268 [4]): 38 µM
0.1 (≈ 0.172 µM) | 5 (≈ 8.6 µM) | 0.1 (≈ 0.172 µM) | CN[C@@H]1[C@H](O[C@H]2[C@H](O[C@H]3[C@H](O)[C@@H](O)[C@H](N=C(N)N)[C@@H](O)[C@@H]3N=C(N)N)O[C@@H](C)[C@]2(O)C=O)O[C@@H](CO)[C@H](O)[C@H]1O [STREPTOMYCIN] |  |  |  |  |  |  |  |  |  |  |  | 
